Data from ChEMBL document CHEMBL5303573, “Mapping human microbiome drug metabolism by gut bacteria and their genes” (Nature, 2019).

Columns and labels:
[1] = The drug is tested on Bifidobacterium longum subsp. Infantis strain: CCUG52486 for biotransformation. The drug concentrations were measured before and after a 12-h incubation by liquid-chromatography-coupled mass spectrometry (LC–MS); settings: 2 µM
[2] = The drug is tested on Alistipes indistinctus strain: DSM22520 for biotransformation. The drug concentrations were measured before and after a 12-h incubation by liquid-chromatography-coupled mass spectrometry (LC–MS); settings: 2 µM
[3] = The drug is tested on Bacteroides coprophilus strain: DSM18228 for biotransformation. The drug concentrations were measured before and after a 12-h incubation by liquid-chromatography-coupled mass spectrometry (LC–MS); settings: 2 µM
[4] = The drug is tested on Bacteroides finegoldii strain: DSM17565 for biotransformation. The drug concentrations were measured before and after a 12-h incubation by liquid-chromatography-coupled mass spectrometry (LC–MS); settings: 2 µM
[5] = The drug is tested on Bacteroides xylanisolvens strain: DSM18836 for biotransformation. The drug concentrations were measured before and after a 12-h incubation by liquid-chromatography-coupled mass spectrometry (LC–MS); settings: 2 µM
[6] = The drug is tested on Anaerotruncus colihominis strain: DSM17241 for biotransformation. The drug concentrations were measured before and after a 12-h incubation by liquid-chromatography-coupled mass spectrometry (LC–MS); settings: 2 µM
[7] = The drug is tested on Clostridium sp. strain: fecal isolate for biotransformation. The drug concentrations were measured before and after a 12-h incubation by liquid-chromatography-coupled mass spectrometry (LC–MS); settings: 2 µM
[8] = The drug is tested on Dorea formicigenerans strain: ATCC27755 for biotransformation. The drug concentrations were measured before and after a 12-h incubation by liquid-chromatography-coupled mass spectrometry (LC–MS); settings: 2 µM
[9] = The drug is tested on Ruminococcus gnavus strain: ATCC29149 for biotransformation. The drug concentrations were measured before and after a 12-h incubation by liquid-chromatography-coupled mass spectrometry (LC–MS); settings: mediterraneibacter gnavus, 2 µM
[10] = The drug is tested on Ruminococcus torques strain: ATCC27756 for biotransformation. The drug concentrations were measured before and after a 12-h incubation by liquid-chromatography-coupled mass spectrometry (LC–MS); format: ADME; parameters: dose 2 uM, timepoint 0 vs 12 hours; settings: 2 µM
[11] = The drug is tested on Enterobacter cancerogenus strain: ATCC35316 for biotransformation. The drug concentrations were measured before and after a 12-h incubation by liquid-chromatography-coupled mass spectrometry (LC–MS); settings: 2 µM
[12] = bifidobacterium adolescentis, 12 h, 2 µM
Description: The drug is tested on Bifidobacterium adolescentis strain: ATCC 15703 for biotransformation. The drug concentrations were measured before and after a 12-h incubation by liquid-chromatography-coupled mass spectrometry (LC–MS)

[13] = bacteroides fragilis, 12 h, 2 µM
Description: The drug is tested on Bacteroides fragilis strain: 3397 (T10) for biotransformation. The drug concentrations were measured before and after a 12-h incubation by liquid-chromatography-coupled mass spectrometry (LC–MS)

[14] = bacteroides intestinalis, 12 h, 2 µM
Description: The drug is tested on Bacteroides intestinalis strain: DSM17393 for biotransformation. The drug concentrations were measured before and after a 12-h incubation by liquid-chromatography-coupled mass spectrometry (LC–MS)

[15] = bacteroides thetaiotaomicron, 12 h, 2 µM
Description: The drug is tested on Bacteroides thetaiotaomicron strain: VPI-5482 for biotransformation. The drug concentrations were measured before and after a 12-h incubation by liquid-chromatography-coupled mass spectrometry (LC–MS)

[16] = bacteroides thetaiotaomicron, 12 h, 2 µM; remark: listed apart in the source
Description: The drug is tested on Bacteroides thetaiotaomicron strain: 3731 for biotransformation. The drug concentrations were measured before and after a 12-h incubation by liquid-chromatography-coupled mass spectrometry (LC–MS)

[17] = parabacteroides distasonis, 12 h, 2 µM
Description: The drug is tested on Parabacteroides distasonis strain: ATCC8503 for biotransformation. The drug concentrations were measured before and after a 12-h incubation by liquid-chromatography-coupled mass spectrometry (LC–MS)

[18] = anaerostipes sp., 12 h, 2 µM
Description: The drug is tested on Anaerostipes sp. strain: fecal isolate for biotransformation. The drug concentrations were measured before and after a 12-h incubation by liquid-chromatography-coupled mass spectrometry (LC–MS)

[19] = bacteroides thetaiotaomicron, 12 h, 2 µM; remark: listed apart in the source
Description: The drug is tested on Bacteroides thetaiotaomicron strain: 7330 for biotransformation. The drug concentrations were measured before and after a 12-h incubation by liquid-chromatography-coupled mass spectrometry (LC–MS)

[20] = roseburia intestinalis, 12 h, 2 µM
Description: The drug is tested on Roseburia intestinalis strain: L1-82 for biotransformation. The drug concentrations were measured before and after a 12-h incubation by liquid-chromatography-coupled mass spectrometry (LC–MS)

SMILES	Bacterial Biotransformation [1]	Bacterial Biotransformation [2]	Bacterial Biotransformation [3]	Bacterial Biotransformation [4]	Bacterial Biotransformation [5]	Bacterial Biotransformation [6]	Bacterial Biotransformation [7]	Bacterial Biotransformation [8]	Bacterial Biotransformation [9]	Bacterial Biotransformation [10]	Bacterial Biotransformation [11]	Bacterial Biotransformation [12]	Bacterial Biotransformation [13]	Bacterial Biotransformation [14]	Bacterial Biotransformation [15]	Bacterial Biotransformation [16]	Bacterial Biotransformation [17]	Bacterial Biotransformation [18]	Bacterial Biotransformation [19]	Bacterial Biotransformation [20]
CC(C)(C)NC(=O)[C@H]1CC[C@H]2[C@@H]3CC[C@H]4NC(=O)C=C[C@]4(C)[C@H]3CC[C@]12C [FINASTERIDE]	Compound NOT metabolized	Compound NOT metabolized	Compound NOT metabolized	Compound metabolized	Compound metabolized	Compound NOT metabolized	Compound NOT metabolized	Compound NOT metabolized	Compound NOT metabolized	Compound NOT metabolized	Compound NOT metabolized	Compound NOT metabolized	Compound NOT metabolized	Compound NOT metabolized	Compound NOT metabolized	Compound NOT metabolized	Compound NOT metabolized	Compound NOT metabolized		
C#C[C@]1(O)CC[C@H]2[C@@H]3CCC4=CC(=O)CC[C@@H]4[C@H]3CC[C@@]21CC [LEVONORGESTREL]		Compound NOT metabolized	Compound NOT metabolized	Compound NOT metabolized	Compound metabolized	Compound NOT metabolized	Compound metabolized	Compound NOT metabolized	Compound metabolized		Compound NOT metabolized	Compound NOT metabolized	Compound metabolized	Compound NOT metabolized		Compound metabolized	Compound metabolized	Compound NOT metabolized	Compound metabolized	
COC(=O)Nc1nc2ccc(C(=O)c3ccccc3)cc2[nH]1 [MEBENDAZOLE]	Compound NOT metabolized	Compound NOT metabolized	Compound NOT metabolized		Compound metabolized	Compound NOT metabolized	Compound metabolized	Compound NOT metabolized	Compound NOT metabolized	Compound NOT metabolized	Compound NOT metabolized			Compound NOT metabolized	Compound metabolized	Compound NOT metabolized	Compound metabolized	Compound NOT metabolized		Compound NOT metabolized
C#C[C@]1(OC(C)=O)CC[C@H]2[C@@H]3CCC4=C/C(=N/O)CC[C@@H]4[C@H]3CC[C@@]21CC [NORGESTIMATE]	Compound NOT metabolized	Compound NOT metabolized	Compound NOT metabolized	Compound metabolized	Compound NOT metabolized	Compound NOT metabolized	Compound metabolized	Compound NOT metabolized	Compound NOT metabolized	Compound NOT metabolized	Compound NOT metabolized	Compound NOT metabolized	Compound NOT metabolized	Compound NOT metabolized	Compound NOT metabolized	Compound NOT metabolized		Compound NOT metabolized	Compound NOT metabolized	Compound NOT metabolized
O=C(O)CCc1nc(-c2ccccc2)c(-c2ccccc2)o1 [OXAPROZIN]	Compound NOT metabolized	Compound NOT metabolized	Compound NOT metabolized	Compound metabolized	Compound metabolized	Compound NOT metabolized	Compound NOT metabolized	Compound NOT metabolized	Compound NOT metabolized	Compound NOT metabolized	Compound NOT metabolized	Compound NOT metabolized		Compound metabolized	Compound metabolized	Compound metabolized	Compound metabolized	Compound NOT metabolized	Compound metabolized	
NC(=O)N1c2ccccc2CC(=O)c2ccccc21 [OXCARBAZEPINE]	Compound metabolized	Compound metabolized	Compound metabolized	Compound NOT metabolized		Compound NOT metabolized	Compound NOT metabolized	Compound metabolized	Compound NOT metabolized	Compound metabolized	Compound metabolized	Compound metabolized		Compound NOT metabolized		Compound NOT metabolized	Compound metabolized	Compound NOT metabolized		Compound metabolized
CCN(CC)CC#CCOC(=O)C(O)(c1ccccc1)C1CCCCC1.Cl (configuration not stated) [OXYBUTYNIN CHLORIDE]		Compound NOT metabolized			Compound metabolized	Compound NOT metabolized	Compound metabolized	Compound metabolized	Compound NOT metabolized		Compound NOT metabolized	Compound NOT metabolized		Compound NOT metabolized	Compound NOT metabolized	Compound NOT metabolized	Compound NOT metabolized	Compound NOT metabolized	Compound NOT metabolized	Compound NOT metabolized
CCCN1C[C@H](CSC)C[C@@H]2c3cccc4[nH]cc(c34)C[C@H]21.CS(=O)(=O)O [PERGOLIDE MESYLATE]	Compound NOT metabolized	Compound NOT metabolized	Compound NOT metabolized	Compound NOT metabolized	Compound NOT metabolized	Compound NOT metabolized	Compound NOT metabolized	Compound NOT metabolized	Compound NOT metabolized	Compound NOT metabolized	Compound NOT metabolized	Compound NOT metabolized	Compound NOT metabolized	Compound NOT metabolized	Compound NOT metabolized	Compound NOT metabolized		Compound NOT metabolized	Compound NOT metabolized	Compound NOT metabolized
